From PubChem BioAssay (NCI)
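Where inhibition never reached the appropriate level, the endpoint shown equals the highest concentration tested. Otherwise, values were interpolated linearly from a five-concentration, 48-hour dose response in 96-well plates. GI50 marks 50% less growth. TGI: total growth inhibition.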

Columns and labels:
Assay in all cases: NCI anticancer screen, dose series, 48 h
RPMI-8226 leukemia = tested on: RPMI-8226 leukemia
SF-268 CNS = tested on: SF-268 CNS
OVCAR-4 ovarian = tested on: OVCAR-4 ovarian
UO-31 renal = tested on: UO-31 renal
HL-60(TB) leukemia = tested on: HL-60(TB) leukemia
SNB-19 CNS = tested on: SNB-19 CNS
IGROV1 ovarian = tested on: IGROV1 ovarian
ACHN renal = tested on: ACHN renal
OVCAR-5 ovarian = tested on: OVCAR-5 ovarian
CCRF-CEM leukemia = tested on: CCRF-CEM leukemia
PC-3 prostate = tested on: PC-3 prostate
UACC-257 melanoma = tested on: UACC-257 melanoma
SK-OV-3 ovarian = tested on: SK-OV-3 ovarian
OVCAR-3 ovarian = tested on: OVCAR-3 ovarian
LOX IMVI melanoma = tested on: LOX IMVI melanoma
SK-MEL-5 melanoma = tested on: SK-MEL-5 melanoma
CAKI-1 renal = tested on: CAKI-1 renal
MCF7 breast = tested on: MCF7 breast
NCI-H522 lung = tested on: NCI-H522 lung
HS 578T breast = tested on: HS 578T breast
SR leukemia = tested on: SR leukemia
A549 NSCLC = tested on: A549 NSCLC
OVCAR-8 ovarian = tested on: OVCAR-8 ovarian
SNB-75 CNS = tested on: SNB-75 CNS
HCC-2998 colon = tested on: HCC-2998 colon
DU-145 prostate = tested on: DU-145 prostate
SK-MEL-2 melanoma = tested on: SK-MEL-2 melanoma
SW-620 colon = tested on: SW-620 colon
NCI/ADR-RES ovarian = tested on: NCI/ADR-RES ovarian
SF-295 CNS = tested on: SF-295 CNS
NCI-H23 lung = tested on: NCI-H23 lung
COLO 205 colon = tested on: COLO 205 colon
RXF 393 renal = tested on: RXF 393 renal
M14 melanoma = tested on: M14 melanoma
MDA-MB-231 breast = tested on: MDA-MB-231 breast
HOP-62 NSCLC = tested on: HOP-62 NSCLC
T-47D breast = tested on: T-47D breast
U251 CNS = tested on: U251 CNS
MOLT-4 leukemia = tested on: MOLT-4 leukemia
K-562 leukemia = tested on: K-562 leukemia
KM12 colon = tested on: KM12 colon
HCT-15 colon = tested on: HCT-15 colon
NCI-H226 lung = tested on: NCI-H226 lung
BT-549 breast = tested on: BT-549 breast
A498 renal = tested on: A498 renal
NCI-H460 lung = tested on: NCI-H460 lung
HOP-92 NSCLC = tested on: HOP-92 NSCLC
UACC-62 melanoma = tested on: UACC-62 melanoma
SF-539 CNS = tested on: SF-539 CNS
EKVX NSCLC = tested on: EKVX NSCLC
TK-10 renal = tested on: TK-10 renal
MDA-N = tested on: MDA-N
HT29 colon = tested on: HT29 colon
MALME-3M melanoma = tested on: MALME-3M melanoma
SK-MEL-28 melanoma = tested on: SK-MEL-28 melanoma
HCT-116 colon = tested on: HCT-116 colon
SN12C renal = tested on: SN12C renal
MDA-MB-435 = tested on: MDA-MB-435
786-0 renal = tested on: 786-0 renal

SMILES: CCn1c(=O)c2nc(SC)sc2n(-c2ccc(C)cc2)c1=O
- TGI (RPMI-8226 leukemia): > 100 µM
- TGI (SF-268 CNS): > 100 µM
- TGI (OVCAR-4 ovarian): > 100 µM
- TGI (UO-31 renal): > 100 µM
- TGI (HL-60(TB) leukemia): > 100 µM
- TGI (SNB-19 CNS): > 100 µM
- TGI (IGROV1 ovarian): > 100 µM
- TGI (ACHN renal): > 100 µM
- TGI (OVCAR-5 ovarian): > 100 µM
- TGI (CCRF-CEM leukemia): > 100 µM
- TGI (PC-3 prostate): > 100 µM
- TGI (UACC-257 melanoma): > 100 µM
- TGI (SK-OV-3 ovarian): > 100 µM
- TGI (OVCAR-3 ovarian): > 100 µM
- TGI (LOX IMVI melanoma): > 100 µM
- TGI (SK-MEL-5 melanoma): > 100 µM
- GI50 (CAKI-1 renal): > 100 µM
- TGI (CAKI-1 renal): > 100 µM
- TGI (MCF7 breast): > 100 µM
- TGI (NCI-H522 lung): > 100 µM
- TGI (HS 578T breast): > 87.4 µM
- TGI (SR leukemia): > 100 µM
- TGI (A549 NSCLC): > 100 µM
- TGI (OVCAR-8 ovarian): > 100 µM
- TGI (SNB-75 CNS): > 95.1 µM
- TGI (HCC-2998 colon): > 100 µM
- TGI (DU-145 prostate): > 100 µM
- TGI (SK-MEL-2 melanoma): > 100 µM
- TGI (SW-620 colon): > 100 µM
- TGI (NCI/ADR-RES ovarian): > 100 µM
- TGI (SF-295 CNS): > 100 µM
- TGI (NCI-H23 lung): > 100 µM
- TGI (COLO 205 colon): > 100 µM
- TGI (RXF 393 renal): > 100 µM
- TGI (M14 melanoma): > 45.2 µM
- TGI (MDA-MB-231 breast): > 100 µM
- TGI (HOP-62 NSCLC): > 100 µM
- TGI (T-47D breast): > 100 µM
- TGI (U251 CNS): > 100 µM
- TGI (MOLT-4 leukemia): > 100 µM
- TGI (K-562 leukemia): > 100 µM
- TGI (KM12 colon): > 100 µM
- TGI (HCT-15 colon): > 100 µM
- TGI (NCI-H226 lung): > 100 µM
- GI50 (BT-549 breast): 33 µM
- TGI (BT-549 breast): > 100 µM
- GI50 (A498 renal): 28.2 µM
- TGI (A498 renal): > 100 µM
- TGI (NCI-H460 lung): > 100 µM
- TGI (HOP-92 NSCLC): > 100 µM
- GI50 (UACC-62 melanoma): 41.2 µM
- TGI (UACC-62 melanoma): > 100 µM
- TGI (SF-539 CNS): > 100 µM
- GI50 (EKVX NSCLC): 71.4 µM
- TGI (EKVX NSCLC): > 100 µM
- TGI (TK-10 renal): > 100 µM
- TGI (MDA-N): > 100 µM
- TGI (HT29 colon): > 100 µM
- TGI (MALME-3M melanoma): > 81.7 µM
- TGI (SK-MEL-28 melanoma): > 100 µM
- TGI (HCT-116 colon): > 100 µM
- TGI (SN12C renal): > 100 µM

SMILES: CC(C)(C)C1CCC2c3c([nH]c4ccccc34)C3C(=O)N(c4ccc(C#N)cc4)C(=O)C3C2C1 (centres undefined)
- TGI (RPMI-8226 leukemia): > 100 µM
- TGI (SF-268 CNS): 29.3 µM
- TGI (UO-31 renal): 33.2 µM
- TGI (HL-60(TB) leukemia): 15 µM
- TGI (SNB-19 CNS): > 100 µM
- TGI (IGROV1 ovarian): > 100 µM
- TGI (ACHN renal): 65.3 µM
- TGI (OVCAR-5 ovarian): 56.8 µM
- TGI (PC-3 prostate): 17.6 µM
- TGI (UACC-257 melanoma): 82.9 µM
- TGI (MDA-MB-435): > 100 µM
- TGI (SK-OV-3 ovarian): > 100 µM
- TGI (OVCAR-3 ovarian): 90.8 µM
- TGI (LOX IMVI melanoma): 34.6 µM
- TGI (SK-MEL-5 melanoma): 25.5 µM
- TGI (CAKI-1 renal): 61 µM
- TGI (MCF7 breast): > 100 µM
- TGI (HS 578T breast): 37 µM
- TGI (SR leukemia): > 100 µM
- TGI (A549 NSCLC): 63.5 µM
- TGI (OVCAR-8 ovarian): 45.6 µM
- TGI (HCC-2998 colon): 11.1 µM
- TGI (DU-145 prostate): 35.7 µM
- TGI (SK-MEL-2 melanoma): 30 µM
- TGI (SW-620 colon): 39.7 µM
- TGI (NCI/ADR-RES ovarian): 53.5 µM
- TGI (SF-295 CNS): > 100 µM
- TGI (NCI-H23 lung): 23.6 µM
- TGI (COLO 205 colon): > 100 µM
- TGI (RXF 393 renal): 15.4 µM
- TGI (M14 melanoma): 72.6 µM
- TGI (MDA-MB-231 breast): 35.2 µM
- TGI (HOP-62 NSCLC): 31.2 µM
- TGI (U251 CNS): 37.1 µM
- TGI (MOLT-4 leukemia): > 100 µM
- TGI (K-562 leukemia): 30.4 µM
- TGI (HCT-15 colon): 26.2 µM
- TGI (NCI-H226 lung): 42.1 µM
- TGI (BT-549 breast): 65.5 µM
- TGI (A498 renal): 35.5 µM
- TGI (NCI-H460 lung): 17.1 µM
- TGI (HOP-92 NSCLC): 22.6 µM
- TGI (786-0 renal): 33.7 µM
- TGI (SF-539 CNS): 43.2 µM
- TGI (EKVX NSCLC): 41.2 µM
- TGI (TK-10 renal): 63.4 µM
- TGI (MDA-N): 26.9 µM
- TGI (HT29 colon): 20.3 µM
- TGI (MALME-3M melanoma): 37.5 µM
- TGI (SK-MEL-28 melanoma): 36.3 µM
- TGI (HCT-116 colon): 18 µM
- TGI (SN12C renal): 21.4 µM

SMILES: COc1ccc(C#Cn2nnc3ccccc32)cc1
- TGI (RPMI-8226 leukemia): 85.1 µM
- TGI (SF-268 CNS): > 100 µM
- TGI (OVCAR-4 ovarian): > 100 µM
- TGI (UO-31 renal): 4.47 µM
- TGI (HL-60(TB) leukemia): 60.6 µM
- TGI (SNB-19 CNS): > 100 µM
- TGI (IGROV1 ovarian): > 100 µM
- TGI (ACHN renal): > 100 µM
- TGI (OVCAR-5 ovarian): > 100 µM
- TGI (PC-3 prostate): > 100 µM
- TGI (UACC-257 melanoma): > 100 µM
- TGI (MDA-MB-435): > 100 µM
- TGI (OVCAR-3 ovarian): > 100 µM
- TGI (LOX IMVI melanoma): > 100 µM
- TGI (SK-MEL-5 melanoma): > 100 µM
- TGI (CAKI-1 renal): > 100 µM
- TGI (MCF7 breast): > 100 µM
- TGI (NCI-H522 lung): > 100 µM
- TGI (HS 578T breast): > 100 µM
- TGI (SR leukemia): > 100 µM
- TGI (A549 NSCLC): > 100 µM
- TGI (OVCAR-8 ovarian): > 100 µM
- TGI (HCC-2998 colon): 82 µM
- TGI (DU-145 prostate): > 100 µM
- TGI (SK-MEL-2 melanoma): > 100 µM
- TGI (SW-620 colon): > 100 µM
- TGI (NCI/ADR-RES ovarian): > 100 µM
- TGI (SF-295 CNS): > 100 µM
- TGI (NCI-H23 lung): > 100 µM
- TGI (COLO 205 colon): > 100 µM
- TGI (RXF 393 renal): > 100 µM
- TGI (M14 melanoma): > 100 µM
- TGI (MDA-MB-231 breast): > 100 µM
- TGI (HOP-62 NSCLC): > 100 µM
- TGI (U251 CNS): > 100 µM
- TGI (MOLT-4 leukemia): > 100 µM
- TGI (K-562 leukemia): > 100 µM
- TGI (KM12 colon): > 100 µM
- TGI (HCT-15 colon): > 100 µM
- TGI (NCI-H226 lung): > 100 µM
- TGI (BT-549 breast): > 100 µM
- TGI (A498 renal): > 100 µM
- TGI (NCI-H460 lung): > 100 µM
- TGI (HOP-92 NSCLC): > 100 µM
- TGI (786-0 renal): > 100 µM
- TGI (UACC-62 melanoma): > 100 µM
- TGI (SF-539 CNS): > 100 µM
- TGI (EKVX NSCLC): > 100 µM
- TGI (TK-10 renal): > 100 µM
- TGI (MDA-N): > 100 µM
- TGI (HT29 colon): > 100 µM
- TGI (MALME-3M melanoma): > 100 µM
- TGI (SK-MEL-28 melanoma): > 100 µM
- TGI (HCT-116 colon): > 100 µM
- TGI (SN12C renal): > 100 µM
